Assay results: paper PMC9821843, “Powerful Potential of Polyfluoroalkyl-Containing 4-Arylhydrazinylidenepyrazol-3-ones for Pharmaceuticals” (Molecules, 2022)
Where two headings read alike, the source gives them in different places. Blank lines part the entries; values can stand above or below the compound they belong to.

Experiments:
Sprague-Dawley (SD) rats = experiment: Hot plate test (analgesic activity); format: in vivo; details: Rattus norvegicus, hot plate test, rats, ip, dose 10 mg/kg, eight independent experiments
How it was run: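 Test compounds were given i.p. as suspensions in 1% starch mucilage to SD rats (3 male, 3 female per group), vehicle as negative control. At 1 and 2 h post-dose, latency to nociceptive response (jumping, hind paw licking/shaking) on a 50 °C plate was recorded, 30 s cutoff.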

Sprague-Dawley rats = experiment: Carrageenan-induced paw edema model (anti-inflammatory activity); format: in vivo; details: ip, dose 10 mg/kg, four independent experiments
Description: Anti-inflammatory activity was studied in Sprague-Dawley rats (3 male and 3 female animals per group) by using the common carrageenan-induced paw edema model. The investigated compounds in 1% starch mucilage were intraperitoneally administered at the corresponding dose to a treated group of rodents 30 min before the injection of 0.1 mL of freshly prepared 1% carrageenan (λ-carrageenan, type IV; Sigma Aldrich, an affiliate of Merck KGaA, Darmstadt, Germany) solution in the right hind paw plantar surface. The negative control group was treated with 1% starch mucilage solution only. Diclofenac sodium (10 mg/kg in 1% starch mucilage solution) was used as a reference drug. Paw volumes were measured oncometrically with water plethysmometer (TSE Volume Meter, Bad Homburg, Germany) before carrageenan administration (“zero time”) and at 1st, 3rd, 5th and 24th h after its injection. An anti-inflammatory activity of the sample at a certain time point was calculated in two steps. First, the percentage of an edema increment (i.e., relative volume change for the inflamed paw vs. “zero time” value) both in the negative control group (Pc) and in the treated group (Ptr) were calculated for this time point for each animal. The difference between treated and control group was considered significant at p < 0.05. Then, for such cases, swelling inhibition was calculated according to the formula: 100% (Pc − Ptr)/Pc and considered as a measure of anti-inflammatory activity of the sample.

ratTRPV1 (rTRPV1) = target: T1, ratTRPV1 (rTRPV1) (Rattus norvegicus, UniProt O35433); experiment: TRPV1 calcium imaging in CHO cells (acid / 2APB activation); format: cell-based; details: 50 μM
T1 construct: expressed in transfected cells
T1 sequence (O35433 whole entry): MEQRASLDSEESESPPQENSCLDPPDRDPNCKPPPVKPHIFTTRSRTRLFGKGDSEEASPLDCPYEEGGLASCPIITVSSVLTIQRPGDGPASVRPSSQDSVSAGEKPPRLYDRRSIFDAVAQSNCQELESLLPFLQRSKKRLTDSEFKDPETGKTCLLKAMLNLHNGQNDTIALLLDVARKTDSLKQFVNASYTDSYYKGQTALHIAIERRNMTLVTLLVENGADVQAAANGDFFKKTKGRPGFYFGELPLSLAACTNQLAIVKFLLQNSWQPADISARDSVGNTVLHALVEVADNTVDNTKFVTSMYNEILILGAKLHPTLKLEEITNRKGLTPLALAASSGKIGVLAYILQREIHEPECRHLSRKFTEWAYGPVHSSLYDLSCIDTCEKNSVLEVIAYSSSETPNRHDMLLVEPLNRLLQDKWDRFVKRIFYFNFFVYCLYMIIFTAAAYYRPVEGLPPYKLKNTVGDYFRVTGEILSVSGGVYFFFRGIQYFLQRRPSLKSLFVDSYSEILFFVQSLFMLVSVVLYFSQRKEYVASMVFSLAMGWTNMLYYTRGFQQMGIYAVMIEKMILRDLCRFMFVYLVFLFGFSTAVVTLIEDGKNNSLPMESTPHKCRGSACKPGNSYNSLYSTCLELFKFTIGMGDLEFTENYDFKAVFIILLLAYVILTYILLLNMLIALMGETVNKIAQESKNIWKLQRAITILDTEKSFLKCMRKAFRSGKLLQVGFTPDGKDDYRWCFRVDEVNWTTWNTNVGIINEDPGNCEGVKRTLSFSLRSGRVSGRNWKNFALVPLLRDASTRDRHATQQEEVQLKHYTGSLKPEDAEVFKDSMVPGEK
Description: Testing for receptors ratTRPA1 (rTRPA1) and ratTRPV1 (rTRPV1), stably expressed in CHO cells, was carried out using the calcium imaging method as described in [123, 124]. Fluorescence was performed using NOVOstar (BMG LABTECH, Ortenberg, Germany). The tested substances in 26% DMSO solution or 26% DMSO solution alone (negative control) (5 μL) were added to the cells loaded with the cytoplasmic calcium indicator Fluo-4AM using Fluo-4 Direct™ Calcium Assay Kit (Thermo Fisher Scientific Inc., Waltham, MA, USA) (60 μL) and incubated 5–10 min. Final DMSO concentration was 2%. Changes in cell fluorescence (λex = 485 nm, λem = 520 nm) were monitored at 25 °C before and after the addition of relevant agonist. The AITC final concentration 160 μM was used for rTRPA1 activation. For rTRPV1 activation we used (1) acid-salt buffer pH4.01 (diluted 2 times Buffer solution pH 4.01 (Mettler Toledo, Greifensee, Switzerland) containing 150 mM NaCl), (2) 2APB in 10 mM HEPES/HBSS, pH 7.4—final concentration 160 μM, or (3) 2APB in acid-salt buffer pH 4.01—final concentration 80 μM. Nonspecificity was tested on wild type CHO.
To achieve the required level of acidification, the cell medium with fluorescent dye (pH 7.4) was pre-titrated to determine the required volume of acid-salt buffer until pH 6.2 was reached. The pH level was also monitored after the test as an average of 10–12 wells. […]

melting point: 165 to 166 °C
Structure (SMILES): Cc1ccc(N/N=C2\C(=O)N(c3ccc(C)cc3)N=C2C(F)(F)C(F)(F)F)cc1

Structure (SMILES): O=C(O)Cc1ccccc1Nc1c(Cl)cccc1Cl [Diclofenac, reference compound]
change in vivo at 10 mg/kg (Sprague-Dawley (SD) rats; 1 h, read-out: Latent Period Prolongation, % 1 h): 63.5 ± 18.2%
change in vivo at 10 mg/kg (Sprague-Dawley (SD) rats; 2 h, read-out: Latent Period Prolongation, % 2 h): 70 ± 20.8%
Inhibition of Paw Edema Development Comparing to Control, after 1 h (Sprague-Dawley rats): 35.6 ± 5.8 ^1%
Inhibition of Paw Edema Development Comparing to Control, after 3 h (Sprague-Dawley rats): 54.3 ± 12.1 ^1%
Inhibition of Paw Edema Development Comparing to Control, after 5 h (Sprague-Dawley rats): 46.2 ± 13.2 ^1%

Structure (SMILES): Oc1cc2c(cc1O)CN(C(=S)NCCc1ccc(Cl)cc1)CCC2 [capsazepine]
inhibition of the increase in intracellular Ca2+ (TRPV1 activation by acidic solution or 160 μM 2APB) (ratTRPV1 (rTRPV1)): effectively inhibited
